From EP4745134A1 (Jiangsu Yahong Meditech Co., Ltd., priority 2023, dated 2025)
pIC50: −log10 of the molar value. Where two headings read alike, the source gives them in different places.

Experiments:
[1] = target: PRMT5-MTA (Homo sapiens, UniProt O14744); assay: Enzymatic inhibitory activity against PRMT5-MTA (AlphaScreen); format: biochemical
Outline: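 PRMT5/[…] (1 nM) was preincubated for 30 min at room temperature with 1 µM […] and 2.5 µM SAM, then exposed to compound (10-point, 3-fold from 1000 nM) for 15 min at 23 °C. Histone H4 substrate (5 nM) was added and reacted for 45 min at 23 °C. Symmetric dimethyl-R3 H4 was detected by AlphaScreen and IC50 calculated.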

[2] = test system: HCT116 MTAP KO cells; assay: Inhibitory activity against cell proliferation (CellTiter Glo, 6 days), HCT116 MTAP KO; format: cell-based; settings: for pIC50: HCT116 MTAP KO cells, 6 days, CellTiter Glo, read-out: HCT116 MTAP KO IC50; for Selectivity HCT 116-WT/ HCT116 MTAP KO: ratio of IC50 HCT116-WT / HCT116 MTAP KO
Outline: (§1)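 250 cells/well, McCoy's 5A + 10% FBS, o/n 37°C 5% CO2; cpd 8-pt 4-fold from 10000 nM, 6 d; CTG lum on day 7; IC50 vs DMSO.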

[3] = test system: HCT116-WT cells; assay: Inhibitory activity against cell proliferation (CellTiter Glo, 6 days), HCT116-WT; format: cell-based; settings: 144 h; for pIC50: HCT116-WT cells, 6 days, CellTiter Glo, read-out: HCT116-WT IC50
Outline: as §1

Sequence of PRMT5-MTA (O14744 whole entry): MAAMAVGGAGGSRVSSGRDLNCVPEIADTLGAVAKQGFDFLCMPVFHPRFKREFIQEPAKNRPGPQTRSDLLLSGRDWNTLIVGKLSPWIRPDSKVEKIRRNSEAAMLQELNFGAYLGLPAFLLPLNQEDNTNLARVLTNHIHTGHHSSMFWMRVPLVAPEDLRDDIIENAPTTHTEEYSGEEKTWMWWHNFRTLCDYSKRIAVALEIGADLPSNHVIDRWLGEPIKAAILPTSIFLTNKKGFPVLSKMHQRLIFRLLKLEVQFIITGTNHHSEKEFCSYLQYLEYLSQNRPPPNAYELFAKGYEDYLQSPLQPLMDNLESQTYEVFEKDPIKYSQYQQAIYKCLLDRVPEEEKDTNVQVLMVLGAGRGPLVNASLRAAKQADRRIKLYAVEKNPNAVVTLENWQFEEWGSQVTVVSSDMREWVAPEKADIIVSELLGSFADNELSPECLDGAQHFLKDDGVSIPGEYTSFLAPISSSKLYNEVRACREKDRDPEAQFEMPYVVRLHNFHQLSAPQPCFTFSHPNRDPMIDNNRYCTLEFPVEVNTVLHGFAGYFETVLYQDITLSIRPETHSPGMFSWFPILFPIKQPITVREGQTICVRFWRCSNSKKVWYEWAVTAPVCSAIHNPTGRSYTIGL
Sequence of PRMT5-MTA (Q9BQA1 whole entry partner): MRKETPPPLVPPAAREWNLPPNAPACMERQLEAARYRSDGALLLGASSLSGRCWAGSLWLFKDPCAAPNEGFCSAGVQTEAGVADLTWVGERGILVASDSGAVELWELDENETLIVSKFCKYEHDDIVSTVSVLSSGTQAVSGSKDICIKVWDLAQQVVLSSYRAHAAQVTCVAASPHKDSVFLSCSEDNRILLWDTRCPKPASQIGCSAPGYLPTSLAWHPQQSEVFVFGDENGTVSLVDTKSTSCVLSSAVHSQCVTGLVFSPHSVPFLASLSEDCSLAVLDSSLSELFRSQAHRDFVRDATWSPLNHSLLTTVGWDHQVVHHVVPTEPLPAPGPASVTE

Row | Structure (SMILES) | pIC50 ([1]; read-out: IC50) | pIC50 ([2]; Homo sapiens, HCT-116, 144 h) | Selectivity HCT 116-WT/ HCT116 MTAP KO [2] | pIC50 [3] | pIC50 [1] | IC50 ([2]; Homo sapiens, HCT-116, 144 h, read-out: HCT116 MTAP KO IC50 (nM)) | IC50 ([3]; read-out: HCT116-WT IC50 (nM))
1 | Cc1cc2cc(C(=O)N(Cc3ccc4ncccc4n3)N(C)c3ncccn3)ccc2nc1N [Compound 283, N-((1,5-naphthyridin-2-yl)methyl)-2-ami no-N',3-dimethyl-N'-(pyrimidin-2-yl)qui noline-6-carbohydrazide] | 8.77 | 6.61 | 11.11 | 5.57 |  |  | 
2 | Cc1cc2cc(C(=O)N(Cc3ccc(C(F)(F)F)cn3)N(C)c3nccc4ccsc34)ccc2nc1N [Example 274, 2-amino-N',3-dimethyl-N'-(thieno[2,3-c]pyridin-7-yl)-N-((5-(trifluoromethyl)pyridin-2-yl)methyl)quinoline-6-carbohydrazide] | 8.43 | 6.78 | 15.10 | 5.60 |  |  | 
3 | Cc1cc2cc(C(=O)N(Cc3ccc(C(C)F)cn3)N(C)c3ncccn3)ccc2nc1N (centres unmarked) [Example 292, 2-amino-N-((5-(1-fluoroethyl)pyridin-2-yl)methyl)-N',3-dimethyl-N'-(pyrimidin-2-yl)q uinoline-6-carbohydrazide] | 8.85 | 7.30 | 30.30 | 5.82 |  |  | 
4 | Cc1cc2nc(N)c3cnn(C)c3c2cc1C(=O)N1CC(F)(F)CN1c1ncccc1F [Example 455, (4-amino-1,7-dimethyl-1H-pyrazolo[4,3-c]quinolin-8-yl)(4,4-difluoro-2-(3-fluoropyridin-2-yl)pyrazolin-1-yl)methanone] | 8.00 | 8.02 | 32.11 | 6.52 |  |  | 
5 | Cc1cc2nc(N)c3cnn(C)c3c2cc1C(=O)N1CCCN1c1ncc(-c2cccnc2)cc1F [Example 473, (4-amino-1,7-dimethyl-1H-pyrazolo[4,3-c]quinolin-8-yl)(2-(5-fluoro-[3,3'-bipyridine]-6-yl)pyrazolidin-1-yl)methanone] | 8.05 | 7.04 | 56.09 | 5.29 |  |  | 
6 | COC1CN(C(=O)c2cc3c(cc2C)nc(N)c2cnn(C)c23)N(c2cccc(F)n2)C1 (centres unmarked) [Example 449, (4-amino-1,7-dimethyl-1H-pyrazolo[4,3-c]quinolin-8-yl)(2-(6-fluoropyridin-2-yl) -4-methoxypyrazolidin-1-yl)methanone] | 8.28 | 7.20 | 23.37 | 5.83 |  |  | 
7 | Cn1ncc2c(N)nc3cc(Cl)c(C(=O)N4CC(F)(F)CN4c4cccc(F)n4)cc3c21 [Example 462, (4-amino-7-chloro-1-methyl-1H-pyrazolo [4,3-c]quinolin-8-yl)(4,4-difluoro-2-(6-fluoropyridin-2-yl)pyrazolidin-1-yl)methanone] | 8.22 | 7.52 | 16.13 | 6.32 |  |  | 
8 | Cc1cc2cc(C(=O)N(Cc3ccc(C4CC4)cn3)N(C)c3ncccc3F)ccc2nc1N [Example 164, 2-amino-N-((5-cyclopropylpyridin-2-yl)methyl)-N'-(3-fluoropyridin-2-yl)-N',3-di methylquinoline-6-carbohydrazide] | 9.05 | 7.70 | 22.15 | 6.35 |  |  | 
9 | Cc1cc2cc(C(=O)N(Cc3ccc(C(F)(F)F)cn3)N(C)c3ncc4ccn(C)c4n3)ccc2nc1N [Example 126, 2-amino-N',3-dimethyl-N'-(7-methyl-7H-pyrrolo[2,3-d]pyrimidin-2-yl)-N-((5-(trifluoromethyl)pyridin-2-yl)methyl)quinoline-6-carbohydrazide] | 8.89 | 7.05 | 16.41 | 5.83 |  |  | 
10 | Cc1cc2nc(N)c3cnn(C)c3c2cc1C(=O)N1CC(C)(C)CN1c1ncccc1F [Example 330, (4-amino-1,7-dimethyl-1H-pyrazolo[4,3-c]quinolin-8-yl)(2-(3-fluoropyridin-2-yl)-4,4-dimethylpyrazolidin-1-yl)methanone] | 7.89 | 7.62 | 25.13 | 6.22 |  |  | 
11 | Cc1cc2nc(N)c3cnn(C)c3c2cc1C(=O)N1CCCN1c1ncc(-c2ccc(N3CCN(C)CC3)nc2)cc1F [Example 478] |  |  | 26.01 |  | 7.72 | 166 nM | 4320 nM
12 | Cn1ncc2c(N)nc3cc(Cl)c(C(=O)N4CC(OCC(F)(F)F)CN4c4ncccc4F)cc3c21 (centres unmarked) [Example 451, (4-amino-7-chloro-1-methyl-1H-pyrazolo[4,3-c]quinolin-8-yl)(2-(3-fluoropyridin-2-yl)-4-(2,2,2-trifluoroethoxy)pyrazolidin-1-yl)methanone] | 8.15 | 7.40 | 25.30 | 5.99 |  |  | 
13 | CN(c1ncccn1)N(Cc1ccc(C(F)(F)F)cn1)C(=O)c1ccc2nc(N)c(CO)cc2c1 [Example 325, 2-amino-3-hydroxymethyl-N'-methyl-N'-(pyrimidin-2-yl)-N-((5-(trifluoromethyl)pyridin-2-yl)methyl)quinoline-6-carbohydrazide] | 8.64 | 7.09 | 38.72 | 5.50 |  |  | 
14 | COc1cnc(N(C)N(Cc2ccc(C(F)(F)F)cn2)C(=O)c2ccc3nc(N)c(C)cc3c2)nc1 [Example 39, 2-amino-N'-(5-methoxypyrimidin-2-yl)-N',3-dimethyl-N-((5-(trifluoromethyl)pyridin-2-yl)methyl)quinoline-6-carbohydrazide] | 8.57 | 6.63 | 15.95 | 5.43 |  |  | 
15 | Cn1ncc2c(N)nc3cc(Cl)c(C(=O)N4CC(C(F)(F)F)CN4c4cccc(F)n4)cc3c21 (centres unmarked) [Example 353, (4-amino-7-chloro-1-methyl-1H-pyrazolo [4,3-c]quinolin-8-yl)(2-(6-fluoropyridin-2-yl)-4-(trifluoromethyl)pyrazolidin-1-yl) methanone] | 8.20 | 6.97 | 16.81 | 5.74 |  |  | 
16 | Cc1cc2cc(C(=O)N(Cc3ccc(C(F)(F)F)cn3)N(C)c3ncccc3C(F)(F)F)ccc2nc1N [Example 53, 2-amino-N',3-dimethyl-N'-(3-(trifluoromethyl)pyridin-2-yl)-N-((5-(trifluoromethy 1)pyridin-2-yl)methyl)quinoline-6-carbohydrazide] | 8.82 | 7.05 | 25.34 | 5.64 |  |  | 
17 | COCc1ncsc1-c1ccc(CN(C(=O)c2ccc3nc(N)c(C)cc3c2)N(C)c2ncccn2)nc1 [Example 226, 2-amino-N-((5-(4-(methoxymethyl)thiazol-5-yl)pyridin-2-yl)methyl)-N',3-dimethyl-N'-(pyrimidin-2-yl)quinoline-6-carbohydrazide] | 8.30 | 7.55 | 31.82 | 6.05 |  |  | 
18 | Cc1cc2cc(C(=O)N(Cc3ccc(-c4cccnc4)cn3)N(C)c3ncccn3)ccc2nc1N [Example 172, N-([3,3'-bipyridine]-6-ylmethyl)-2-amino -N',3-dimethyl-N'-(pyrimidin-2-yl)quinoline-6-carbohydrazide] | 8.68 | 7.62 | 73.08 | 5.76 |  |  | 
19 | [2H]C([2H])([2H])n1ncc2c(N)nc3cc(C)c(C(=O)N4CC(C)CN4c4ncccc4F)cc3c21 (centres unmarked) [Example 507, (4-amino-7-methyl-1-(methyl-D3)-1H-pyrazolo[4,3-c]quinolin-8-yl)(2-(3-fluoropyridin-2-yl)-4-methylpyrazolidin-1-yl)methanone] | 7.99 | 7.42 | 44.34 | 5.77 |  |  | 
20 | Cc1cc2nc(N)c3cnn(C)c3c2cc1C(=O)N1CC(C)CN1c1cc(F)ccc1F (centres unmarked) [Example 335, (4-amino-1,7-dimethyl-1H-pyrazolo[4,3-c]quinolin-8-yl)(2-(2,5-difluorophenyl)-4-methylpyrazolidin-1-yl)methanone] | 8.48 | 7.82 | 42.93 | 6.19 |  |  | 
21 | Cc1cc2cc(C(=O)N(Cc3ccc(-c4cnn(C5CCC5)c4)cn3)N(C)c3ncccn3)ccc2nc1N [Example 149, 2-amino-N-((5-(1-cyclobutyl-1H-pyrazol-4-yl)pyridin-2-yl)methyl)-N',3-dimethyl-N'-(pyrimidin-2-yl)quinoline-6-carbohydr azide] | 8.54 | 7.00 | 16.02 | 5.80 |  |  | 
22 | COc1cccc(N2CC(C)CN2C(=O)c2cc3c(cc2C)nc(N)c2cnn(C)c23)n1 (centres unmarked) [Example 406] |  | 7.64 | 39.39 | 6.04 | 8.37 |  | 
23 | Cc1cc2cc(C(=O)N(Cc3cc(C(F)(F)F)ccn3)N(C)c3ncccn3)ccc2nc1N [Example 61, 2-amino-N',3-dimethyl-N'-(pyrimidin-2-yl)-N-((4-(trifluoromethyl)pyridin-2-yl)methyl)quinoline-6-carbohydrazide] | 8.62 | 6.90 | 18.95 | 5.62 |  |  | 
